Drawing on PubChem BioAssay AID652171 (Broad Institute, 2013), this text covers inhibition of cytokine-induced cell death for two molecules.

The experiment relates to INS-1E cytokine-induced apoptosis, ATP luminescence, 48 h. Kind of experiment: protection from cytokine-induced beta-cell death, late-stage follow-up, mechanism study for beta-cell protection project, INS-1E, ATP luminescence, dry powder (AID 652171).

The structures appear in SMILES notation.

For the molecule `C[C@@H]1CN([C@@H](C)COC(=O)NCCOCCOCCN)C(=O)c2cccc(NC(=O)Nc3cccc4ccccc34)c2O[C@H]1CN(C)S(=O)(=O)c1ccc2c(c1)OCCO2`, the inhibition of cytokine-induced cell death (at 20 µM (top of the series)) is 102%.
On to `C[C@@H]1CN([C@@H](C)CO)C(=O)c2cccc(NC(=O)Nc3cccc4ccccc34)c2O[C@H]1CN(C)S(=O)(=O)c1ccc2c(c1)OCCO2`, for which the inhibition of cytokine-induced cell death (at 10 µM (top of the series)) is 90%.
